According to patent publication US8596358B2, “Well treatment” (Statoil ASA, priority 2004, dated 2013):
Converted amounts (≈) assume the structure as drawn.

How the values were obtained:
daphnia = assay: Daphnia toxicity (EC50 daphnia); settings: in vivo
Source text: (§1) Materials for use in the invention include organosilanes, for example organosilane hydrides, organosilane alkoxides and organosilane amines. Organosilane compounds have the advantage that they are typically oil-soluble and react with water. […] Organosilanes for use in the invention preferably have a biodegradability of at least 60%. Whilst not wishing to be bound by theory, it is believed that organosilane compounds react with water and hydrolyse. The resulting chemicals then react with siliceous surfaces in the formation (e.g. the surface of silica sand), coat any sand particles, bind them in place by the formation of bridges and restrict their movement. The advantage of bifunctional organosilanes is their ability to bind two particles together.

fish = assay: Fish toxicity (LC50 fish); settings: in vivo
Source text: as §1

algae = assay: Algae toxicity (IC50 algae); format: cell-based
Source text: as §1

[1] = Biodegradability according to OECD 306; settings: as tested according to OECD 306
Source text: as §1

Compound | EC50 daphnia (daphnia) | LC50 fish (fish) | IC50 algae (algae) | biodegradability [1]
CCO[Si](CCCNCCC[Si](OCC)(OCC)OCC)(OCC)OCC [DYNASYLAN bis-AMEO] | > 200 µg/mL | > 200 µg/mL | 125 µg/mL (≈ 294 µM) | –
CCO[Si](CCCN)(OCC)OCC [DYNASYLAN AMEO, 3-amino-propyltriethoxysilane] | – | 934 µg/mL (≈ 4220 µM) | – | 67%
